In ChEMBL document CHEMBL1201862, “PubChem BioAssay data set” (2004):
Activity calls are given as the source filed them.

How the values were obtained:
[1] = HepG2 cell cytotoxicity, dose response, cytotoxicity control, cherry-picked samples (AID 1159577); format: functional, cell-based
[2] = P. falciparum Dd2 growth inhibitors, dose response, SYBR Green, cherry-picked samples (AID 1159567); format: functional, cell-based
[3] = P. falciparum 3D7-ScDHODH growth inhibitors, dose response, SYBR Green, dry powder samples (AID 1159570); format: functional, cell-based;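 note: parasite growth measured after 72 hours of compound exposure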
[4] = P. falciparum ATP4 D1247Y mutant growth inhibitors, dose response, NITD609-resistant line, SYBR Green, dry powder (AID 1159571); format: functional, cell-based;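 note: parasites synchronized at ring stage by sorbitol before testing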
[5] = P. falciparum Dd2 growth inhibitors, dose response, SYBR Green, dry powder samples (AID 1159566); format: functional, cell-based;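 note: potency for growth inhibition with lower SYBR green DNA signal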
[6] = Artemis endonuclease inhibitor potency, dose response, biochemical, fluorescence intensity (AID 720701); format: functional;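 note: Artemis endonuclease enzyme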
[7] = molecular target: NAD-dependent protein deacylase sirtuin-5, mitochondrial (Homo sapiens, UniProt Q9NXA8); test: SIRT5 desuccinylase inhibitors, dose response, biochemical, fluorescence imaging, cherry-pick, set 5 (AID 720591);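 note: desuccinylation of succinyl peptide AMC substrate read as fluorescence after trypsin release; potency of inhibitors that lower fluorescence and may act on trypsin instead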
Sequence of NAD-dependent protein deacylase sirtuin-5, mitochondrial (Q9NXA8 whole entry): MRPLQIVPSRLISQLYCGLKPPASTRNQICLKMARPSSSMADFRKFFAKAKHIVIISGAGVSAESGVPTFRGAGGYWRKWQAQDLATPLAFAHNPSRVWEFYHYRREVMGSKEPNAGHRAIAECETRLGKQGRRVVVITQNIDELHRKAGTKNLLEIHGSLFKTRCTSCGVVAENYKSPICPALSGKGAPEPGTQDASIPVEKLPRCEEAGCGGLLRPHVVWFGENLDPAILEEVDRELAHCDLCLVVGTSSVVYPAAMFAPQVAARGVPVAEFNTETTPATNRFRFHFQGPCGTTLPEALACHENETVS

[8] = MC4R antagonists, dose response, counter-screen for LGR2 antagonist project, cell-based, plate reader, cherry pick (AID 743444); format: functional;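 note: transfected HEK 293 cells stimulated with alpha-MSH peptide; potency of inhibitors of the alpha-MSH evoked signal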
[9] = HEK293 cell cytotoxicity, dose response, cytotoxicity control, plate reader, cherry-picked samples (AID 743446); format: functional, cell-based
[10] = A549 cell cytotoxicity, dose response, cytotoxicity control, plate reader, cherry-pick, antagonist series (AID 743412); format: functional, cell-based
HeLa = test: HeLa cell cytotoxicity, dose response, cytotoxicity control, ATP luminescence, cherry-pick samples (AID 687004); format: functional, cell-based; conditions: Homo sapiens
[11] = HEK293 Cytotoxicity Assay Measured in Cell-Based System Using Plate Reader - 7071-01_Inhibitor_Dose_CherryPick_Activity_Set2.; format: functional
HEK293 [12] = test: inhibitors of LMP1-driven NF-kB reporter, dose response, cell-based, HEK293, luciferase, cherry-pick (AID 588343); format: functional; conditions: Homo sapiens
[13] = LGR2 antagonists, dose response, cell-based, HEK293, CRE-luciferase reporter, cherry pick, set 2 (AID 743343); format: functional;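 note: transfected cells were stimulated with diluted bursicon conditioned medium after compound addition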
HEK293 [14] = test: HEK293T cell cytotoxicity, dose response, cytotoxicity control, ATP luminescence, cherry-pick samples (AID 687005); format: functional, cell-based; conditions: Homo sapiens;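 note: cells exposed to compound for 48 hours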
[15] = molecular target: 5-hydroxytryptamine receptor 2A (Mus musculus, UniProt P35363); format: functional, cell-based;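 note: CHO-K1 cells with tagged receptor and beta-arrestin; agonist potency measured as compound-induced activation of the receptor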
Sequence of 5-hydroxytryptamine receptor 2A (P35363 whole entry): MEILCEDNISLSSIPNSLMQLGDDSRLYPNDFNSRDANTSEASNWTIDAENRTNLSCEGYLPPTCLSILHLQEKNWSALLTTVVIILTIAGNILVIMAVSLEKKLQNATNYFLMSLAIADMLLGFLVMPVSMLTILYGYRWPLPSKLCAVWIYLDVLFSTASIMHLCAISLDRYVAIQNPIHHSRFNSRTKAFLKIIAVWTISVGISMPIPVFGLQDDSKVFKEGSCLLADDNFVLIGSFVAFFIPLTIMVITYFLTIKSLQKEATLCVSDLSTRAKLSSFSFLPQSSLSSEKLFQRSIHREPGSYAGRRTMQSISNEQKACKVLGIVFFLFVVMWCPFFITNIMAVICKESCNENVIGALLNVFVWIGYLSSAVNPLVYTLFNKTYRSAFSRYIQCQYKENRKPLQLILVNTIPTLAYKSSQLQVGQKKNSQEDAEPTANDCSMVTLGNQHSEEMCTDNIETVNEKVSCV

Mu-type opioid receptor = Mu-type opioid receptor (Homo sapiens, UniProt P35372); format: functional, cell-based;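 note: U2OS cells with beta-arrestin recruitment to OPRM1 by beta-gal complementation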
Sequence of Mu-type opioid receptor (P35372 whole entry, the tested form may be a part): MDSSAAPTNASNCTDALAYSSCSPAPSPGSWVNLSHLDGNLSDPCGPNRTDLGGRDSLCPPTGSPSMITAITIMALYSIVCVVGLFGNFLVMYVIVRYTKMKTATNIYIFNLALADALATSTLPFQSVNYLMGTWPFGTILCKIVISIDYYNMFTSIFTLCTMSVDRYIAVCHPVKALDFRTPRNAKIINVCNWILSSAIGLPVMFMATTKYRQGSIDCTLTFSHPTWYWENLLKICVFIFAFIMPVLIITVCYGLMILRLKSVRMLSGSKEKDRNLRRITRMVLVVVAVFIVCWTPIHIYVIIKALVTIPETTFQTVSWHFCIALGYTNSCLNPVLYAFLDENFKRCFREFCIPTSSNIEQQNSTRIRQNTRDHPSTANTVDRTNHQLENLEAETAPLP

[16] = inhibitors of HIV Env-driven cell fusion, dose response, cherry-pick (AID 652057); format: functional, cell-based
[17] = off-target signal loss in HeLa-CEM21 co-culture – HeLa F-luc CTL cells, cherry-picked, counter-screen for HIV-1 Env fusion inhibitor project, dose response (AID 652040); format: functional, cell-based;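 note: potency for signal decrease marking cytotoxic or nonspecific inhibition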
[18] = inhibitors of clade B AD8 Env fusion, dose response, cell-based, cherry-pick (AID 652062); format: functional;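 note: luciferase signal from cell-cell fusion driven by HIV-1 clade B AD8 Env; potency is for inhibitors of fusion seen as a drop in luminescence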
[19] = ZM109 Env clade C HIV-1 fusion inhibitors, dose response, HeLa effector, CEM target cells, luciferase, cherry-pick (AID 652058); format: functional, cell-based
[20] = molecular target: T1, Apoptotic protease-activating factor 1 (Homo sapiens, UniProt O14727); format: functional
T1 sequence (O14727 whole entry): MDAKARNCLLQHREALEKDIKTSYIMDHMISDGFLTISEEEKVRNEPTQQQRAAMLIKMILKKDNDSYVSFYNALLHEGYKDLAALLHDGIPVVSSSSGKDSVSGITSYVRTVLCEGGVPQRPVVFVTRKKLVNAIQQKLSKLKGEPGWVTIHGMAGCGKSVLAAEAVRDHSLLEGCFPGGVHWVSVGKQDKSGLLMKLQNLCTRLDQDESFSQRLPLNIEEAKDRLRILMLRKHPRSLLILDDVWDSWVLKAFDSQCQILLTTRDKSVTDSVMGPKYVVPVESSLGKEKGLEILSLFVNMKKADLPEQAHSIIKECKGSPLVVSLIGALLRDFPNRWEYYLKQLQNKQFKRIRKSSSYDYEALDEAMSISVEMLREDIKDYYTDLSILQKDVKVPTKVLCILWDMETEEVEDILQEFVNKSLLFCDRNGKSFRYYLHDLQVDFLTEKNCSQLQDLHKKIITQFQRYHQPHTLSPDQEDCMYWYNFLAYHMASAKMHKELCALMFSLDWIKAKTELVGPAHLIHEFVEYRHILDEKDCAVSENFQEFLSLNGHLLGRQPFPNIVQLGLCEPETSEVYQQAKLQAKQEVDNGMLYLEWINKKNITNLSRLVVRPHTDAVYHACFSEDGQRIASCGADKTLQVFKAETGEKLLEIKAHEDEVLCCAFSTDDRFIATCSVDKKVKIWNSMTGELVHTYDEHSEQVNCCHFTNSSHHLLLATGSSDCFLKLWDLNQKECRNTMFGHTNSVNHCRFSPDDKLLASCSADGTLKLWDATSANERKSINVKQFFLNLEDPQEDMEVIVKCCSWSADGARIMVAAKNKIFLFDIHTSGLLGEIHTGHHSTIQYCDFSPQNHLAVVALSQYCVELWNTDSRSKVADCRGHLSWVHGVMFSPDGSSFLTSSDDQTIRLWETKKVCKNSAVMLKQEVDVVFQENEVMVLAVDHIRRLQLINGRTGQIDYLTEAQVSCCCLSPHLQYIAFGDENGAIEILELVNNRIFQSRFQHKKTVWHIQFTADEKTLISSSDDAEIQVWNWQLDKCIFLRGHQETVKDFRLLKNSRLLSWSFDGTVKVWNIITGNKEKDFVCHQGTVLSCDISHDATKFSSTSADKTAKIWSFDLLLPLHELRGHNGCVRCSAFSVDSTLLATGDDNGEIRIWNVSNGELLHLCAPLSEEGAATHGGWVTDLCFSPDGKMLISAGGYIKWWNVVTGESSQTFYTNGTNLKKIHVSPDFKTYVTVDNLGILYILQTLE

[21] = molecular target: T2, Sentrin-specific protease 8 (Homo sapiens, UniProt Q96LD8); format: functional
T2 sequence (Q96LD8 whole entry): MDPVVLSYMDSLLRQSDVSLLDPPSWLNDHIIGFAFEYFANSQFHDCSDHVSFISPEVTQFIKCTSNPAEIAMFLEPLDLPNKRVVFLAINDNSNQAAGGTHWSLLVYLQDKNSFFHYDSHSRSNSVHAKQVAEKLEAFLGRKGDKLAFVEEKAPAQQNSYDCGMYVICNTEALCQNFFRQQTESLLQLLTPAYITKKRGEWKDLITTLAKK

[22] = inhibitors of firefly luciferase expression or activity, dose response, H4 neuroglioma cells, luminescence (AID 1990); format: functional, cell-based
[23] = molecular target: T3, Voltage-gated N-type calcium channel alpha-1B subunit/Amyloid beta A4 precursor protein-binding family A member 1 (Homo sapiens, UniProt Q00975+Q02410); format: protein assay
T3 sequence (Q00975 whole entry): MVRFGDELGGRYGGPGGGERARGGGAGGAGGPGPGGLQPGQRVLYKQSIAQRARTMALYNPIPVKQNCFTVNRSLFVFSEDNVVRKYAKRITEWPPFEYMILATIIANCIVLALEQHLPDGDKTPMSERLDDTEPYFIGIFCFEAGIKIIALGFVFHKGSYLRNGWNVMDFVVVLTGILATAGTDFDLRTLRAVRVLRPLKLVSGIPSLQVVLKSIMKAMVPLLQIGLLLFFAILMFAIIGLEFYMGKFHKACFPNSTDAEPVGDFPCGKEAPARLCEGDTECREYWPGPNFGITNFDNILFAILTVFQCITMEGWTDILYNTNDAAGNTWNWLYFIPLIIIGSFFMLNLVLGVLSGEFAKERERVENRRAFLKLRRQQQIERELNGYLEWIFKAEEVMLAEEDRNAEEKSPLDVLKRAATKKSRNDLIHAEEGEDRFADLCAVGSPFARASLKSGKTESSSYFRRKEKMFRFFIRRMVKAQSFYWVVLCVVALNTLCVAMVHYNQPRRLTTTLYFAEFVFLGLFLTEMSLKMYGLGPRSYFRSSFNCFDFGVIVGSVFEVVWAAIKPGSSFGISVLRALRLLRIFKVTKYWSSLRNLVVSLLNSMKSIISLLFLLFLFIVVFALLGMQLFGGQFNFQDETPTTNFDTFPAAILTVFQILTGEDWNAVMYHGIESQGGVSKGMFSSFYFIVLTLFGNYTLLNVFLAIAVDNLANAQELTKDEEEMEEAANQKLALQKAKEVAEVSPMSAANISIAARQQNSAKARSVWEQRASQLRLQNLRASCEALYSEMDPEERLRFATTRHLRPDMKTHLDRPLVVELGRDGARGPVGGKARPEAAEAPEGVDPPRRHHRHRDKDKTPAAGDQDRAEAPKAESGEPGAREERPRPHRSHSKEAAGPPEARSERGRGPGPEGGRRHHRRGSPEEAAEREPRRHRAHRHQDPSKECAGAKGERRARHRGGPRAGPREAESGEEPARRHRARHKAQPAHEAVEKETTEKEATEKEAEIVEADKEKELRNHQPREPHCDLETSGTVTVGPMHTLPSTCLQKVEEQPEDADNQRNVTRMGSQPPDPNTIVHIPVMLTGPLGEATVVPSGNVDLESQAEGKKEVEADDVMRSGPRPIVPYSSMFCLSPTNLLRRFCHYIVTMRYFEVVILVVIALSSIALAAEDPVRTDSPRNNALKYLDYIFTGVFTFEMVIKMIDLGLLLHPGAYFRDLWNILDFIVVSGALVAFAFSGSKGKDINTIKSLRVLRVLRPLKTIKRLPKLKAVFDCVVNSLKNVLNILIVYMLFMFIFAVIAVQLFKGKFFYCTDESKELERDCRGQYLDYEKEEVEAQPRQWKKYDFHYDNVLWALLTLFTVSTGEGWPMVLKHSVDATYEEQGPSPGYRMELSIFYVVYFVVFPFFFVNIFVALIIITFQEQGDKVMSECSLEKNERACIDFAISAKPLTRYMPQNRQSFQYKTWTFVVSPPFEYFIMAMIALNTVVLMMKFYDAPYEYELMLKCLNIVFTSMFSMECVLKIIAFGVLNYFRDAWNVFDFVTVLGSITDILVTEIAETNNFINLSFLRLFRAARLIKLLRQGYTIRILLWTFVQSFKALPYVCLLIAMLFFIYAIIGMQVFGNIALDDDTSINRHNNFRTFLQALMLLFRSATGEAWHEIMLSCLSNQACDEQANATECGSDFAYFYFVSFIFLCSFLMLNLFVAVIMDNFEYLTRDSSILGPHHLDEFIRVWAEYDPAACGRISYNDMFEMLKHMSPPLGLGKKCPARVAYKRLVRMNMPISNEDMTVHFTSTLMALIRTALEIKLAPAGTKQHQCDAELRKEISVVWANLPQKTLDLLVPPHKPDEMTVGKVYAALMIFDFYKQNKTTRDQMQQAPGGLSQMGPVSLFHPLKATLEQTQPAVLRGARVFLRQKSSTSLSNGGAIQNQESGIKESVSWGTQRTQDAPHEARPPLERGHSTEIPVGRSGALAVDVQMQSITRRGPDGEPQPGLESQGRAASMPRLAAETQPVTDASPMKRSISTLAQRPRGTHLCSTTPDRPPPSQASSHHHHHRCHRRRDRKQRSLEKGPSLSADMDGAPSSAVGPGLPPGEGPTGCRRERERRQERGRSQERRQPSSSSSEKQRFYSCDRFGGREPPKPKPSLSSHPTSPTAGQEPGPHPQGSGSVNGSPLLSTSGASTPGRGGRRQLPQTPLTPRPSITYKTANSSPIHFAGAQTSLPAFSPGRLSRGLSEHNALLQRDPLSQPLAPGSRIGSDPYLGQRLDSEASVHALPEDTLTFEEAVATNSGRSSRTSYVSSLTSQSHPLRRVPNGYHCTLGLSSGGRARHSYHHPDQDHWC
T3 sequence (Q02410 whole entry): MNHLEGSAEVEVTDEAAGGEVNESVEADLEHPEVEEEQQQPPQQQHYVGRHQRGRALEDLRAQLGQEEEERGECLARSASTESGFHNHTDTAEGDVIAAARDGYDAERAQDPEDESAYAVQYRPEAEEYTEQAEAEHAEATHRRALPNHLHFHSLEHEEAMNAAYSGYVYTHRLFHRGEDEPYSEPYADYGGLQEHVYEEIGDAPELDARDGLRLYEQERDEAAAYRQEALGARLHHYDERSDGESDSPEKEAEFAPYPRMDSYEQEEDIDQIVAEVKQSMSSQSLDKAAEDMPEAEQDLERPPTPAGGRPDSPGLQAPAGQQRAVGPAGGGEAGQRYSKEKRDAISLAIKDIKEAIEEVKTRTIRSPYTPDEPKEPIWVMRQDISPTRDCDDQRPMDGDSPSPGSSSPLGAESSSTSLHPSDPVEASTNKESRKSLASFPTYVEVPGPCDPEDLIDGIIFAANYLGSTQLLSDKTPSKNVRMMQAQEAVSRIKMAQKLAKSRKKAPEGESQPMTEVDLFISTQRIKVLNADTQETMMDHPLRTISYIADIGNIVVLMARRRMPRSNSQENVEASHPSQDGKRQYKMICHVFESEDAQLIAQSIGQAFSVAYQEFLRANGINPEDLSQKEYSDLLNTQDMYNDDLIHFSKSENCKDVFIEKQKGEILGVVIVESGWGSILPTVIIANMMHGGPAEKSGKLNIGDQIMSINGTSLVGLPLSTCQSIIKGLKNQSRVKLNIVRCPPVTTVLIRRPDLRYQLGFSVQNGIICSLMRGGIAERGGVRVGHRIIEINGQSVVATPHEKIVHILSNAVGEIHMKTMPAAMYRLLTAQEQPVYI

[24] = Luminescence Cell-Based Dose Response HTS to Identify Inhibitors of 5'UTR Stem-Loop Driven Prion Protein mRNA Translation in H4 Neuroglioblastoma Cells. [Related pubchem assays: 1827 (Project Summary), 1813 (Primary HTS)]; format: functional
[25] = inhibitors of SNCA 5'UTR-driven reporter translation, confirmation, H4 neuroglioma cells, luminescence (AID 1988); format: functional, cell-based
[26] = molecular target: T2, Sentrin-specific protease 8; format: functional; remark: listed apart in the source
[27] = molecular target: T3, Voltage-gated N-type calcium channel alpha-1B subunit/Amyloid beta A4 precursor protein-binding family A member 1; format: protein assay; remark: listed apart in the source
[28] = cytotoxicity in OVCAR8 ovarian cancer cells, dose response, PAX8 project, cell-based, plate reader, dry powder samples (AID 743197); format: functional; conditions: OVCAR-8
[29] = NIH:OVCAR-3 ovarian cancer cell cytotoxicity, dose response, PAX8 inhibitor project, plate reader, dry powder samples (AID 743044); format: functional, cell-based
[30] = IGROV1 ovarian cancer cell cytotoxicity, dose response, PAX8 inhibitor project, plate reader, dry powder samples (AID 743043); format: functional, cell-based; conditions: IGROV-1
Paired box protein Pax-8 = Paired box protein Pax-8 (Homo sapiens, UniProt Q06710); test: inhibitors of PAX8-driven TPO luciferase reporter, dose response, RMG-I cells, cherry-pick (AID 687027); format: functional, cell-based;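 note: luciferase reporter driven by Pax8 target thyroperoxidase promoter measured by SteadyGlo luminescence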
Sequence of Paired box protein Pax-8 (Q06710 whole entry): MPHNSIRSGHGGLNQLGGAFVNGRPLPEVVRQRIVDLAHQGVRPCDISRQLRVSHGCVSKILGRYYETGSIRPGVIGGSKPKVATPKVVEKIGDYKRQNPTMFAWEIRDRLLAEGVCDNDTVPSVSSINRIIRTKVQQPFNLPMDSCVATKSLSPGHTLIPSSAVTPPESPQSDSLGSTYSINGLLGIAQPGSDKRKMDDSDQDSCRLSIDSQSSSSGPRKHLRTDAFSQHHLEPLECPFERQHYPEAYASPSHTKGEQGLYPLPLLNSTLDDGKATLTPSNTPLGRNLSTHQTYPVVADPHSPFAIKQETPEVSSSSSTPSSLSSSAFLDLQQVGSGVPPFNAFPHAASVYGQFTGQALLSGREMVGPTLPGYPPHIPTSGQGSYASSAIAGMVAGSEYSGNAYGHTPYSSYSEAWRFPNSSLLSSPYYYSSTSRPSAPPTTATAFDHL

[31] = THP-1 cell cytotoxicity, dose response, cytotoxicity control for Vif-APOBEC3G degradation inhibitor project, THP-1 cells (AID 1117359); format: functional; conditions: Human immunodeficiency virus 1, THP-1

## C[C@@H]1CN([C@H](C)CO)C(=O)c2cc(C#CCc3ccccc3)cnc2O[C@H]1CN(C)CC1CCCC1
[1]
  AC50: 13.5 µM (active)
[2]
  AC50: 1.91 µM (active)

## CN(C)C(=O)c1cccc(-c2cccc(-c3nc(C(=O)NC4CCCCC4)cc4c3[C@H](CCO)N([S@@+]([O-])C(C)(C)C)C4)c2)c1
[3]
  AC50: 1.32 µM (active)
[2]
  AC50: 2.05 µM (active)
[4]
  AC50: 0.933 µM (active)
[5]
  AC50: 0.736 µM (active)

## COc1cccc(CN2C[C@@H]3N[C@H](C2)[C@@H]3c2ccc(-c3cccc(C#N)c3)cc2)c1
[1]
  AC50: 9.19 µM (active)
[2]
  AC50: 3.66 µM (active)

## O=C(N/N=C/c1cccs1)c1cc(-c2ccc3ccccc3c2)[nH]n1
[6]
  IC50: > 20 µM (inactive)

## Cc1c(C(=O)OCC(O)=C(C#N)c2nc3ccccc3[nH]2)oc2ccc(Br)cc12
[7]
  AC50: > 30 µM (inactive)

## O=C(C1CC1)N1CC(=O)N2[C@H](CO)[C@H](c3ccc(C#CCc4ccccc4)cc3)[C@H]2C1
[1]
  AC50: > 39 µM (inactive)
[2]
  AC50: 9.66 µM (active)

## CCCCC(=O)Nc1ccc(N2CCCC2)cc1
[6]
  IC50: > 20 µM (inactive)

## Cc1ccc(S(=O)(=O)Nc2ccc3c(c2)CC(=O)N([C@H](C)CO)C[C@H](C)[C@H](CN(C)Cc2ccc(Cl)c(Cl)c2)O3)cc1
[8]
  AC50: 32.4 µM (active)
[9]
  AC50: > 47 µM (inactive)
[10]
  AC50: 24.7 µM (active)

## Cc1ccc(C(=O)Nc2ccc3ncccc3c2)cc1
[8]
  AC50: 3.88 µM (active)
[9]
  AC50: > 52 µM (inactive)
[10]
  AC50: > 52 µM (inactive)
HeLa
  AC50: > 52 µM (inactive)
[11]
  AC50: 20.5 µM (active)
HEK293 [12]
  AC50: 1.6 µM (active)
[13]
  AC50: 1.96 µM (active)
HEK293 [14]
  AC50: 20.5 µM (active)

## CCn1c(N2CCN(S(=O)(=O)c3ccc(OC)cc3)CC2)nc2ccccc21
[15]
  EC50: 30 µM (inactive)
Mu-type opioid receptor
  EC50: 92.5 µM (inactive)

## COc1ccc(CN2CCN(C(=O)c3ccco3)CC2)cc1OCc1ccccc1
[15]
  EC50: 1.48 µM (active)
Mu-type opioid receptor
  EC50: 92.5 µM (inactive)

## Cc1ccc2c(c1)c1c3n2CCN(CCC#N)C3CCC1 (stereo not drawn)
[16]
  AC50: 12.9 µM (active)
[17]
  AC50: 1.89 µM (active)

## O=C(NC12CC3CC(CC(C3)C1)C2)OCCNC1CCCCC1
[16]
  AC50: 2.91 µM (active)
[18]
  AC50: 7.98 µM (active)
[17]
  AC50: 4.34 µM (active)
[19]
  AC50: 6.43 µM (active)

## O=C(NCCO)Nc1ccc(Cl)cc1
[7]
  AC50: > 30 µM (inactive)

## C/C=C/c1ccc([C@@H]2[C@H]3CN(C(=O)Nc4ccc(OC)cc4)CCCCN3[C@H]2CO)cc1
HeLa
  AC50: > 52 µM (inactive)
[11]
  AC50: 24.4 µM (active)
HEK293 [14]
  AC50: 24.4 µM (active)

## O=C(Nc1cccc(C(F)(F)F)c1)c1ccc2nc(-c3ccco3)c(-c3ccco3)nc2c1
[20]
  IC50: 43.9 µM (active)
[6]
  IC50: > 20 µM (inactive)

## CC(C)NC(=O)Nc1ccc2c(c1)C(=O)N([C@@H](C)CO)C[C@@H](C)[C@@H](CN(C)S(=O)(=O)c1ccc(Cl)cc1)OCCCC[C@@H](C)O2
[11]
  AC50: 20.6 µM (active)
HEK293 [14]
  AC50: 20.6 µM (active)

## C[C@@H]1CN([C@H](C)CO)C(=O)c2cc(NC(=O)Nc3cccc4ccccc34)ccc2O[C@@H]1CN(C)C(=O)Nc1ccccc1
HeLa
  AC50: 22.8 µM (active)

## COc1ccc2ccccc2c1CN1CCN(C(=O)c2ccco2)CC1
[15]
  EC50: 1.77 µM (active)
Mu-type opioid receptor
  EC50: 92.5 µM (inactive)

## CCOC(=O)c1nn(-c2ccc(C)c(C)c2)c(=O)c2c(N)scc12
[21]
  IC50: 5.63 µM (active)
[22]
  EC50: 13.8 µM (active)
[23]
  IC50: 9.97 µM (active)
[24]
  EC50: > 120 µM (not active)
[25]
  EC50: > 120 µM (not active)
[20]
  IC50: 42.2 µM (active)
[26]
  IC50: 5.03 µM (active)
[27]
  IC50: > 50 µM (inactive)

## C[C@H]1CCCCO[C@@H](CN(C)Cc2ccc(C(F)(F)F)cc2)[C@@H](C)CN([C@@H](C)CO)C(=O)c2cc(NC(=O)Nc3ccc4c(c3)OCO4)ccc2O1
[28]
  AC50: 51.5 µM (active)
[29]
  AC50: 21.1 µM (active)
[30]
  AC50: 49.6 µM (active)
Paired box protein Pax-8
  AC50: 7.11 µM (active)

## CN(C)N1C(N)=C(C#N)C(c2cccnc2)C2=C1CCCC2=O (stereo not drawn)
[31]
  CC50: > 40 µM (active)
